Test results published in ChEMBL document CHEMBL4229381, “New cytokinin derivatives possess UVA and UVB photoprotective effect on human skin cells and prevent oxidative stress” (Eur J Med Chem, 2018).
Active and inactive are the calls of the source. The calls are words filed in the database; no cut-off is given here.

Experiments:
[1] = Antioxidant activity assessed as trolox equivalent of AAPH-induced radical scavenging activity at 1 uM pretreated for 15 mins followed by […] challenge measured every 3 mins over 90 mins by ORAC-FL assay; format: functional
Nicotiana tabacum = assay: Growth promoting activity in tobacco callus assessed as callus weight at 10^-5 mol/L after 4 weeks relative to control; format: functional
Triticum aestivum = assay: Anti-senescent activity in leaf of Triticum aestivum cv. Hereward seedlings by measuring chlorophyll retention at 10^-4 mol/L after 4 days relative to control; format: functional
NHDF [2] = assay: Cytoprotection against phototoxicity in human NHDF cells assessed as increase in cell viability at 3.9 to 31.3 uM preincubated for 60 mins followed by 7.5 J/cm2 UVA irradiation and measured after 24 hrs by neutral red uptake assay; format: functional, cell-based
Amaranthus caudatus [3] = assay: Growth promoting activity in Amaranthus caudatus var. atropurpurea seeds by measuring betacyanin at 10^-5 mol/L after 48 hrs relative to control; format: functional
NHDF [4] = assay: Cytoprotection against phototoxicity in human NHDF cells assessed as increase in cell viability at 3.9 to 31.3 uM preincubated for 60 mins followed by 150 mJ/cm2 UVB irradiation and measured after 24 hrs by neutral red uptake assay; format: functional, cell-based
Amaranthus caudatus [5] = assay: Growth promoting activity in Amaranthus caudatus var. atropurpurea seeds by measuring betacyanin at 10^-4 mol/L after 48 hrs relative to control; format: functional

Q: What does the source list for `c1coc(CNc2ncnc3[nH]cnc23)c1` [KINETIN]?
A: Activity [1]: 0.71 equiv; Activity (Nicotiana tabacum): 101%; Activity (Triticum aestivum): 98%; Activity (NHDF [2]): Active; Activity (Amaranthus caudatus [3]): 68%; Activity (NHDF [4]): Active

Q: Which results are given for `Cc1ccsc1CNc1ncnc2c1ncn2C1CCCO1` (stereo unspecified)?
A: Activity (Nicotiana tabacum): 99%; Activity (Triticum aestivum): 110%

Q: For `c1nc(NCC2CCCC2)c2nc[nH]c2n1`, which Activity (Nicotiana tabacum) is on record?
A: 100%

Q: And the Activity (Triticum aestivum)?
A: 71%

Q: And the Activity (Amaranthus caudatus [5])?
A: 97%
